Test results: PubChem BioAssay AID248 (DTP/NCI, 2004)
Toxic doses and inconclusive results are not listed. Rule as the data show it: active = T/C of 150% or more; inactive = T/C below 125%.

System: L1210 leukemia ip in BDF1 mice, survival T/C
Assay: NCI In Vivo Anticancer Drug Screen. Data for tumor model L1210 Leukemia (intraperitoneal) in B6D2F1 (BDF1) mice
Conditions: endpoint: mean survival time, higher = longer survival
How it was run: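 Survival endpoint. Drug-treated group vs vehicle group, expressed as T divided by C. Tumor passaged by transplantation.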

[1] = dose: 100.0 mg/kg/injection, schedule: Q01DX001 (ip), vehicle: saline
[2] = dose: 200.0 mg/kg/injection, schedule: Q01DX001 (ip), vehicle: saline
[3] = dose: 400.0 mg/kg/injection, schedule: Q01DX001 (ip), vehicle: saline

Measured: T/C

CN(C)CC(=O)CC12CC3CC(CC(C3)C1)C2
inactive: dose: 100.0 mg/kg/injection, schedule: Q04DX002 (ip), vehicle: saline 94 % of control | dose: 200.0 mg/kg/injection, schedule: Q04DX002 (ip), vehicle: saline 100 % of control | dose: 400.0 mg/kg/injection, schedule: Q04DX002 (ip), vehicle: saline 89 % of control

O=C(O)CN(CC(=O)O)c1ccccc1
inactive: dose: 50.0 mg/kg/injection, schedule: Q01DX001 (ip), vehicle: saline 103 % of control | [1] 92 % of control | [2] 103 % of control | [3] 95 % of control

C/C=C\C1CC2CC(C1C)C2(C)C (centres undefined)
inactive: dose: 50.0 mg/kg/injection, schedule: Q01DX009 (ip), vehicle: saline 102 % of control | dose: 100.0 mg/kg/injection, schedule: Q01DX009 (ip), vehicle: saline 97 % of control | dose: 200.0 mg/kg/injection, schedule: Q01DX009 (ip), vehicle: saline 105 % of control

C/C(=C\Cl)COC(C)(C)C
inactive: dose: 100.0 mg/kg/injection, schedule: Q01DX001 (ip), vehicle: saline with Tween-80 94 % of control | dose: 200.0 mg/kg/injection, schedule: Q01DX001 (ip), vehicle: saline with Tween-80 94 % of control

O=C(Nc1cc([N+](=O)[O-])ccc1S(=O)(=O)c1ccc([N+](=O)[O-])cc1NC(=O)c1ccccc1)c1ccccc1
inactive: dose: 75.0 mg/kg/injection, schedule: Q04DX003 (ip), vehicle: saline 92 % of control | [1] 93 % of control | dose: 150.0 mg/kg/injection, schedule: Q04DX003 (ip), vehicle: saline 124 % of control | [2] 94 % of control | dose: 300.0 mg/kg/injection, schedule: Q04DX003 (ip), vehicle: saline 92 % of control | [3] 94 % of control

CN(C)c1ccc(S(=O)(=O)Cl)cc1[N+](=O)[O-]
inactive: dose: 100.0 mg/kg/injection, schedule: Q04DX003 (ip), vehicle: saline 104 % of control | dose: 200.0 mg/kg/injection, schedule: Q04DX003 (ip), vehicle: saline 107 % of control | dose: 400.0 mg/kg/injection, schedule: Q04DX003 (ip), vehicle: saline 101 % of control

CC(C)(C)N1CC1C(=O)Sc1ccccc1 (centres undefined)
inactive: dose: 25.0 mg/kg/injection, schedule: Q04DX003 (ip), vehicle: Klucel (hydroxypropylcellulose) (HPC) 102 % of control | dose: 50.0 mg/kg/injection, schedule: Q04DX003 (ip), vehicle: Klucel (hydroxypropylcellulose) (HPC) 101 % of control | dose: 100.0 mg/kg/injection, schedule: Q04DX003 (ip), vehicle: Klucel (hydroxypropylcellulose) (HPC) 109 % of control
